As usually defined, the pEC50 is the negative decadic logarithm of the EC50, by convention in mol/L.

Results on 14 compounds are retold here after patent publication US11116760B2 (Gilead Sciences, Inc., priority 2018, dated 2021).

pEC50: −log10 of the molar value.

One test deals with α4β7 integrin (Homo sapiens (Human), UniProt P13612+P26010). Nature of the test: α4β7 Integrin Cell Capture Assay. It is filed as cell-based. The settings on record: RPMI8866 cells captured on MadCAM-1 extracellular domain-coated plate.
Chain of α4β7 integrin (P13612 34-1032): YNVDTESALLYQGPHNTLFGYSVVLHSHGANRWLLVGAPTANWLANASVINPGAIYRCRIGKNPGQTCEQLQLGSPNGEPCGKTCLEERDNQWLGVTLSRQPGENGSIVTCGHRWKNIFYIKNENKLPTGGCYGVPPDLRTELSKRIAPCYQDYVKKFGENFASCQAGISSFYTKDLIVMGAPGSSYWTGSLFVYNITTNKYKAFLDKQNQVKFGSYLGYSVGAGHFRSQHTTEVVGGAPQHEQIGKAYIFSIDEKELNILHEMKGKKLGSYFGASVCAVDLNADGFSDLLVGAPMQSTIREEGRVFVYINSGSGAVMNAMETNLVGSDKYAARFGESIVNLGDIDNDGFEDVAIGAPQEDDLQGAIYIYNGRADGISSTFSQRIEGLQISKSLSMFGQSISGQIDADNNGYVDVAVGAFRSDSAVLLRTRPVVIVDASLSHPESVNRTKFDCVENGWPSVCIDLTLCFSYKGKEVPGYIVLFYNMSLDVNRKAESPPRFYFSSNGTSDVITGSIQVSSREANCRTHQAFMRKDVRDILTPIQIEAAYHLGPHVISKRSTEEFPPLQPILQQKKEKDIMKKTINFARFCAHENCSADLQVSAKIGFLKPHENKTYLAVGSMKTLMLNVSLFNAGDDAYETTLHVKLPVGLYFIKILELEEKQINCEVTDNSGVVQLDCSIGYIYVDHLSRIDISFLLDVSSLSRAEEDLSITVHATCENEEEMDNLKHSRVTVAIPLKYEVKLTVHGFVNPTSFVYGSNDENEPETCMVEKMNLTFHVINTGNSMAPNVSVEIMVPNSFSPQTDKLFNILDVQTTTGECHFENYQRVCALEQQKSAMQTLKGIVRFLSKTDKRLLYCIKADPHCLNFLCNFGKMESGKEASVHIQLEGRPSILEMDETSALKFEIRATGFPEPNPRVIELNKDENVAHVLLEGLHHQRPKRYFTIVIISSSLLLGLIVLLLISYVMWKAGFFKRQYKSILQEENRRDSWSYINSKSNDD
Chain of α4β7 integrin (P26010 20-798): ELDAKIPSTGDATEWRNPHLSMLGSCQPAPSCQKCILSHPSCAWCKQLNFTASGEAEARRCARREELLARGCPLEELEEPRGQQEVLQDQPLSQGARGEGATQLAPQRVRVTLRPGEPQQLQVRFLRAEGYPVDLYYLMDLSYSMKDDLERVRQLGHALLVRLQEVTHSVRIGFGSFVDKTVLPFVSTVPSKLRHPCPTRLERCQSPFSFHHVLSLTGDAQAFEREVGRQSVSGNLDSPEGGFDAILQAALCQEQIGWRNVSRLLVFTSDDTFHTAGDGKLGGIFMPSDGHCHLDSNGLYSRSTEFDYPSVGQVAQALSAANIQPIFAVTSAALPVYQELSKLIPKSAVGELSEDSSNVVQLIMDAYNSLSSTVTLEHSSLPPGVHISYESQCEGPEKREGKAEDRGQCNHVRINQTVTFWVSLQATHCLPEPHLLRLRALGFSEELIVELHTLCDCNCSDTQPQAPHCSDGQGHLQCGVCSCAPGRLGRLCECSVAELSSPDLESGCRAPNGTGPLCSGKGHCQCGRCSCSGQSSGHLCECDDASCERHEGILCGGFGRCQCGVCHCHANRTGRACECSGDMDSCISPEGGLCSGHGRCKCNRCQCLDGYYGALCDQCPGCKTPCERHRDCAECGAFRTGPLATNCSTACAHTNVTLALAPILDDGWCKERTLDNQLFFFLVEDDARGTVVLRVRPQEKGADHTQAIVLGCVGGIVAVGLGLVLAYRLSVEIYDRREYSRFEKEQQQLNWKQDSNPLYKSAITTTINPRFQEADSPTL
`Cc1cc(C(F)(F)F)c(-c2ccc(C[C@H](NC(=O)c3c(F)cc(N4C[C@H]5C[C@@H]4CO5)cc3F)C(=O)O)c3cccnc23)c(=O)n1C` [Example 480]: the pEC50 was 9.53.
On the same count and under the same terms, with `Cc1cc2c(=O)n(-c3ccc(C[C@H](NC(=O)c4c(C)cc(N5CCOC[C@@H]5C(F)(F)F)cc4F)C(=O)O)c4cccnc34)c(=O)n(C)c2cn1` [Example 425] the figure was 9.73; with `CN1CCc2c(cc(-c3ccc(C[C@H](NC(=O)c4c(F)cc(N5CCOC[C@@H]5C(F)(F)F)cc4F)C(=O)O)c4cccnc34)c(=O)n2C)C1` [Example 437], 9.58; with `CCc1cc(N2CCOC[C@@H]2C(F)(F)F)cc(F)c1C(=O)N[C@@H](Cc1ccc(-c2c(C(F)(F)F)cc(C)n(C)c2=O)c2ncccc12)C(=O)O` [Example 471], 9.75.
Same read-out and setting: the same measure for `Cc1cc(N2CC(F)(F)C2)c(-c2ccc(C[C@H](NC(=O)c3c(F)cc(N4CCOC[C@@H]4C(F)(F)F)cc3F)C(=O)O)c3cccnc23)c(=O)n1C` [Example 476]: 9.47.
In the case of `Cc1cc(C(F)(F)F)c(-c2ccc(C[C@H](NC(=O)c3c(F)cc(N4CCOC[C@@H]4C(F)(F)F)cc3C3CC3)C(=O)O)c3cccnc23)c(=O)n1C` [Example 463], the negative-log EC50 (pEC50) was 9.69.
The compound `Cc1cc(N2CCOC[C@@H]2C(F)(F)F)cc(F)c1C(=O)N[C@@H](Cc1ccc(-c2c(C)c(Cl)cn(C)c2=O)c2ncccc12)C(=O)O` [Example 451] showed a pEC50 of 9.68.

The test is the same for the next values; noted with them: Table 1; capture of α4β7 expressing RPM18866 cells on MadCAM-1 extracellular domain-coated plate.
Turning to `CC[C@@H](Nc1cc(F)c(C(=O)N[C@@H](Cc2ccc(-c3cc(Cl)c(C)n(C)c3=O)c3ncccc23)C(=O)O)c(F)c1)C(F)(F)F` [Example 116, (S)-3-(8-(5-chloro-1,6-dimethyl-2-oxo-1,2-dihydropyridin-3-yl)quinolin-5-yl)-2-(2,6-difluoro-4-(((R)-1,1,1-trifluorobutan-2-yl)amino)benzamido)propanoic acid], the negative logarithm of the EC50 (pEC50) was 8.92.
Take `Cc1cc(C(F)(F)F)c(-c2ccc(C[C@H](NC(=O)c3c(F)cccc3F)C(=O)O)c3cccnc23)nc1C` [Example 12, (S)-2-(2,6-difluorobenzamido)-3-(8-(5,6-dimethyl-3-(trifluoromethyl)pyridin-2-yl)quinolin-5-yl)propanoic acid]: the pEC50 is 8.15.
Same read-out and setting: with `N#Cc1ccc(-c2ccc(C[C@H](NC(=O)c3c(F)cc(N4CCCC[C@@H]4C(F)(F)F)cc3F)C(=O)O)c3cccnc23)c(Cl)c1` [Example 75, (S)-3-(8-(2-chloro-4-cyanophenyl)quinolin-5-yl)-2-(2,6-difluoro-4-((R)-2-(trifluoromethyl)piperidin-1-yl)benzamido)propanoic acid] the figure was 7.09; with `Cc1cccc(F)c1C(=O)N[C@@H](Cc1ccc(-c2ccc(C#N)cc2Cl)c2ncccc12)C(=O)O` [Example 1, (S)-3-(8-(2-chloro-4-cyanophenyl)quinolin-5-yl)-2-(2-fluoro-6-methylbenzamido)propanoic acid], 7.67.
On the same count and under the same terms, the same measure for `CC[C@@H](Nc1cc(F)c(C(=O)N[C@@H](Cc2ccc(-c3nn(C)c(=O)cc3C)c3ncccc23)C(=O)O)c(F)c1)C(F)(F)F` [Example 119, (S)-2-(2,6-difluoro-4-(((R)-1,1,1-trifluorobutan-2-yl)amino)benzamido)-3-(8-(1,4-dimethyl-6-oxo-1,6-dihydropyridazin-3-yl)quinolin-5-yl)propanoic acid]: 7.69; for `CC[C@@H](Nc1cc(F)c(C(=O)N[C@@H](Cc2ccc(-c3c(C(F)(F)F)cc(C)n(C)c3=O)c3ncccc23)C(=O)O)c(Cl)c1)C(F)(F)F` [Example 144, (S)-2-(2-chloro-6-fluoro-4-(((R)-1,1,1-trifluorobutan-2-yl)amino)benzamido)-3-(8-(1,6-dimethyl-2-oxo-4-(trifluoromethyl)-1,2-dihydropyridin-3-yl)quinolin-5-yl)propanoic acid]: 9.70.

The same test, now with this note: Table 2; capture of α4β7 expressing RPM18866 cells on MadCAM-1 extracellular domain-coated plate.
In the case of `N#Cc1ccc(-c2ccc(C[C@H](NC(=O)c3c(Cl)cc4nc[nH]c4c3Cl)C(=O)O)c3cccnc23)c(Cl)c1` [Example 323], the negative-log EC50 (pEC50) was 7.77.
